Experimental data reported in patent publication US7109215B2, “Compounds possessing neuronal activity” (Vertex Pharmaceuticals Incorporated, priority 1997, dated 2006).
Marks after values point to notes of the source that are not given here.

What was measured:
[1] = test system: pheochromocytoma PC12 cells; experiment: Neurite outgrowth quantitation in PC12 cell system; type: cell-based, rat; conditions: 1–5 ng/ml NGF, 72 hours
Protocol: In order to directly determine the neurotrophic activity of compounds described in this invention, the neurite outgrowth assay was carried out with pheochromocytoma PC12 cells as described by Lyons et al. (1994).
PC12 cells were maintained at 37° C. and 5% CO2 in Dulbecco's modified Eagle's medium (DMEM) supplemented with 10% heat-inactivated horse serum, 5% heat-inactivated fetal bovine serum (FBS), and 1% glutamate.
The cells were then plated at […] in 96 well plates coated with […] rat tail collagen and allowed to attach overnight. The medium was then replaced with DMEM, 2% heat-inactivated horse serum, 1% glutamate, 1–5 ng/ml of NGF (Sigma) and varying concentrations of the compounds of this invention (0.01 nM–10000 nM). The background control culture was administered with […] of NGF alone without compound. Positive control cultures were administered with high concentration of NGF (50 ng/ml). The cells were then incubated at 37° C. at 5% CO2 for 72 hours, fixed with 3% formaldehyde and nerve outgrowth was determined visually on a scale of 0 to 4.

FKBP = FKBP (Homo sapiens, UniProt P62942); experiment: Rotamase inhibition assay (chymotrypsin-coupled PPIase assay); type: biochemical; conditions: 15 nM FKBP, 30 μM Suc-Ala-Leu-Pro-Phe-pNA, 15° C.
Protocol: Inhibition of FKBP enzyme activity was determined in the PPIase assay described in S. T. Park et al., J. Biol. Chem., 267, pp. 3316–24 (1992), the disclosure of which is herein incorporated by reference. This is a chymotrypsin-coupled assay in which FKBP catalyzes the cis to trans isomerization of the Leu-Pro bond in the peptide substrate Suc-Ala-Leu-Pro-Phe-pNA. The trans form, but not the cis form, is cleavable by chymotrypsin. The release Phe-pNA was monitored by absorbance at 400 nm. Chymotrypsyn cleavage is very rapid and therefore cis-to-trans isomerization is rate-limiting.
Each reaction mix consisted of 0.1 M Tris buffer, pH 7.8, 15 nM FKBP, 30 μM substrate and 0.5 nM to 10 μM of compound to be tested diluted in Me2SO. The mixture was incubated at 15° C. for 5 minutes and then reaction was initiated by addition of chymotrypsin (100 μg/ml final concentration) and followed spectrophotometrically for 5 minutes. Total reaction volume was 1 ml.

HL60/Vinc cells = experiment: MDR sensitization (reversal) assay, doxorubicin, XTT viability; type: cell-based, human; conditions: IC50 doxorubicin alone / IC50 doxorubicin plus compound
Protocol: We carried out multidrug resistance reversal (MDR) assays using L1210vMDRC.06 or HL60/Vinc cell lines. L1210vMDRC.06 are L1210 mouse leukemia cells transduced with the pHaMDR1/A retrovirus carrying a MDR1 cDNA, as described by Pastan et al., Proc. Natl. Acad. Sci. USA, 85, pp. 4486–4490 (1988). The L1210vMDRC.06 multidrug resistant line is a cell line that has been drug-selected by culturing transfected cells in 0.06 μg/ml colchicine. The HL60/Vinc human promyleocytic leukemia cell line is a multidrug resistant cell line derived from HL60 drug-sensitive parental cells by selection in increasing concentrations of vincristine.
Assays using HL60/Vinc cells were performed by plating cells in 96 well microtiter plates at a concentration of 4×10^4 cells/well. The cells were then exposed to various concentrations of doxorubicin (9 nM to 6.7 μM) in the presence or absence of various compounds of this invention at various concentrations (0.5, 1.0, 2.5, 5.0 or 10 μM) as described in U. Germann et al., Anti-Cancer Drugs, 8, pp. 141–155 (1997). After culturing the cells for 3 days, their viability was quantitated using the XTT dye method to assess mitochondrial function (Roehm et al., supra). Results were expressed as a ratio of the IC50 for doxorubicin alone to the IC50 for doxorubicin plus compound. In all assays the intrinsic antiproliferative or cytotoxicity activity of the MDR inhibitors was also determined for HL60/Vinc cells.

FKBP, sequence (P62942 whole entry): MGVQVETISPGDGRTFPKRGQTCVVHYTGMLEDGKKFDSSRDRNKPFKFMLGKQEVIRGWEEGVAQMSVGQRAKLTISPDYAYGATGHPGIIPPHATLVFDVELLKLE

Ki (FKBP) | Compound | Neurite outgrowth, visual scale of 0 to 4 ([1]; compound 10 nM) | Neurite outgrowth, visual scale of 0 to 4 ([1]; compound 100 nM) | Neurite outgrowth, visual scale of 0 to 4 ([1]; compound 1000 nM) | MDR Ratio (HL60/Vinc cells; compound 2.5 μM) | MDR Ratio (HL60/Vinc cells; compound 10 μM)
> 50 µM | CN(CCc1ccccn1)C(=O)C(Cc1ccccc1)N(C)S(=O)(=O)c1ccc(N)cc1 (stereo in doubt) [Compound 2, (S)-(N-methyl)-2-(methyl-(4-amino-benzenesulfanilamido))-3-phenyl-N-(2-(pyridin-2yl)ethyl) propionamide] | 3*** | 3*** | 4*** | 0.7 | –
– | CN(CCc1ccccn1)C(=O)[C@@H]1CCCCN1S(=O)(=O)c1ccc(N)cc1 [Compound 1, N-(4-aminobenzenesulfonamido)-(S)-piperidine-2-carboxylic acid-2-((N-methyl)-2-pyridylethyl) amide] | 3*** | 1*** | 3*** | 0.6 | –
> 50 µM | CN(CCCc1cccnc1)C(=O)[C@@H]1CCCCN1S(=O)(=O)c1ccc(N)cc1 [Compound 3] | 2*** | 4*** | 4*** | 0.6 | –
> 25 µM | CN(C(=O)[C@H](Cc1ccccc1)N(C)S(=O)(=O)c1ccc(N)cc1)C(CCCc1cccnc1)CCCc1cccnc1 [Compound 4, (S)-(N-methyl)-2-(methyl-(4-amino-benzenesulfanilamido))-3-phenyl-N-(4-(pyridin-3-yl)-1-(3-(pyridin-3-yl)propyl)butyl) propionamide] | 3* | 3* | 4* | 6.2 | –
– | CN(C(=O)[C@H](Cc1ccccc1)N(C)S(=O)(=O)c1ccc(Nc2ccc([N+](=O)[O-])cc2[N+](=O)[O-])cc1)C(CCCc1cccnc1)CCCc1cccnc1 [Compound 5] | 2* | 3* | 3* | – | 30.4
– | CN(C)c1ccc(/N=N\c2ccc(S(=O)(=O)N(C)[C@@H](Cc3ccccc3)C(=O)N(C)C(CCCc3cccnc3)CCCc3cccnc3)cc2)cc1 [Compound 6] | 4* | 2* | 3* | – | 17.7
– | CN(C)c1cccc2c(S(=O)(=O)N(C)[C@@H](Cc3ccccc3)C(=O)N(C)C(CCCc3cccnc3)CCCc3cccnc3)cccc12 [Compound 7] | 2* | 3* | 3* | – | 21.9
> 50 µM | CN(C(=O)[C@H](Cc1ccccc1)N(C)S(=O)(=O)c1ccccc1[N+](=O)[O-])C(CCCc1cccnc1)CCCc1cccnc1 [Compound 8] | 4* | 2* | 3* | 28.5 | –
– | CN(C(=O)[C@H](Cc1ccccc1)N(C)S(=O)(=O)CS(C)(=O)=O)C(CCCc1cccnc1)CCCc1cccnc1 [Compound 11] | 1* | 3* | 3* | 1.7 | –
– | CN(C(=O)[C@H](Cc1ccccc1)N(C)S(=O)(=O)Cc1ccccc1)C(CCCc1cccnc1)CCCc1cccnc1 [Compound 12] | 3* | 3* | 4* | 22.6 | –
– | CN(C(=O)[C@H](Cc1ccccc1)N(C)S(=O)(=O)/C=C/c1ccccc1)C(CCCc1cccnc1)CCCc1cccnc1 [Compound 13] | 3* | 3* | 4* | 19.3 | –
